This note sets out measurements from paper PMC9545147, “Impact of Sulfur Fumigation on Ginger: Chemical and Biological Evidence” (Journal of Agricultural and Food Chemistry, 2022).

A short description of data set [1]: MTT cell viability assay, HCC-1806. The format is cell-based. The conditions noted are these: human, HCC-1806 breast cancer cells, HCC-1806, 100 μM. Here is the method: (§1) HCT-116 colon cancer cells (Procell, Wuhan, China) were cultured in McCoy’s 5A medium (Gibco; Thermo Fisher Scientific Inc., MA, USA), Hep-G2 hepatocellular carcinoma cells (Procell, Wuhan, China) in Eagle’s minimum essential medium (EMEM, Gibco; Thermo Fisher Scientific Inc., MA, USA), and HCC-1806 breast cancer cells (Manassas, VA, USA) in RPMI-1640 medium (Gibco; Thermo Fisher Scientific Inc., MA, USA). All the mediums were supplemented with 10% fetal bovine serum and 1% penicillin–streptomycin (Thermo Fisher Scientific Inc., MA, USA) and cultured at 37 °C in a humidified incubator with 5% CO2.
(§2) Cell viability was determined by a 3-(4,5-dimethylthiazol-2-yl)-2,5-diphenyltetrazolium bromide (MTT) colorimetric assay. Each cell strain (6000 cells/well) was plated in 96-well microtiter plates and allowed to attach for 24 h at 37 °C and 5% CO2. Compound I or 6-shogaol (in dimethyl sulfoxide, DMSO) was added to the cell culture medium to desired final concentrations of 10, 40, and 100 μM. Final DMSO concentrations for control and treatments were 0.1%. There were six replicates of each condition. After the cells were cultured for 24 h, the medium was removed, and the cells were treated with 5 mg/mL MTT in fresh media. […] Absorbance values were derived from the plate reading at 490 nm on microplate readers (BioTek, Agilent).
(In general: Formazan colour is commonly taken as a measure of viable cells.)

A short description of data set [2]: Stability evaluation of samples in rat plasma (UPLC–QQQ–MS/MS method validation). The format is in vitro ADME. The note with it: n=3; for Stability (Mean±SD), Postpreparative: rat plasma samples in autosampler for 8 h; for Stability (Mean±SD), Short Term / Stability (Mean±SD), Freeze and Thaw / Stability (Mean±SD), Long Term: rat plasma; for Stability (Mean±SD), Short Term: room temperature for 4 h; for Stability (Mean±SD), Freeze and Thaw: −20 °C for 24 h and thawed at room temperature, repeated three times; for Stability (Mean±SD), Long Term: −20 °C for 30 days. As to the method:
The established UPLC–QQQ–MS/MS methods were validated according to the guidelines of the US Food and Drug Administration.[10] Linearity, limit of detection (LOD), lower limit of quantification (LLOQ), interday and intraday accuracy and precision, extraction recovery, and stability were measured. The calibration curve was replicated three times on the same day (intraday) and over 3 days (interday) to evaluate accuracy and precision. The correlation coefficient (r^2) of all calibration curves was at least 0.995, and the bias and coefficient of variation were kept within ±15%. Matrix effect and recovery evaluation: the matrix effect was given as the ratio of mean peak area for the post-extraction spiked samples (set 2, in plasma) to that of the standard solution samples (set 1, in MeOH). Recovery was quantified as the ratio of mean peak area of the pre-extraction spiked samples (set 3, standard with homogenate plasma) to that of the post-extraction spiked samples (set 2, in plasma). Stability: (1) freeze and thaw: samples were stored at −20 °C for 24 h and thawed at room temperature and repeated three times; (2) short term: samples were maintained at room temperature for 4 h; (3) long term: samples were kept at −20 °C for 30 days; (4) postpreparative: samples were maintained in an autosampler for 8 h. The stability of all the samples was limited to within ±15%, except for the LLOQ within ±20%.

Data set [3] in a line: Pharmacokinetics in rats after single oral (intragastric) administration. It is filed as in vivo. The conditions noted are these: male, Sprague-Dawley, rat, 10 mg/kg, plasma, mean ± SD (n = 6); for CL/F: read-out: Cl/F_obs (apparent total body clearance) (converted); for MRT: read-out: MRT (mean residence time); for half-life: read-out: T1/2 (terminal half-life) (converted); for Vd/F: read-out: Vz/F_obs (apparent volume of distribution). Here is the method: A multiple reaction monitoring (MRM) mass acquisition method using a triple quadrupole (QQQ) mass spectrometer was used to determine compound I and 6-shogaol in rat plasma. Chromatographic separation was performed on an Agilent 1290 UPLC equipped with a binary pump with degasser (G4220A), a thermostatic column compartment (G1316C), and an autosampler (G4226A). […] The mobile phase used for the UPLC consisted of 0.1% formic acid in water (v/v) (A) and 0.1% formic acid in acetonitrile (v/v) (B). The elution gradient procedure started at 15% B, then 0–5 min, 15–75% B; 5–6 min, 75–100% B; 6–9 min, 100% B; 9–12 min, 15% B.
MS data were acquired with an Agilent 6460 QQQ mass spectrometer (G6460) equipped with a JetStream electrospray ion (ESI) source. The MRM parameters were as follows: for 6-gingesulfonic acid, negative mode; fragmentor at 120 V; ion pair m/z 357.1 → 80.9 (15 V), 357.1 → 275.1 (15 V). For 6-shogaol, positive mode; fragmentor at 80 V; ion pair m/z 277.2 → 137.0 (11 V), 277.2 → 259.1 (7 V).
The pharmacokinetic parameters were calculated using the PKSolver 2.0 add-in with a non-compartment model.[11],[12] The time to peak drug concentration (Tmax) means the time when plasma concentrations reached a maximum value (Cmax). The area under the concentration versus time curve from zero to the last sampling time (AUC0–t) and to infinity (AUC0–∞), apparent volume of distribution (Vz/F_obs), terminal half-life (T1/2), mean residence time (MRT), and apparent total body clearance (Cl/F_obs), were calculated under the PKSolver add-in. All the results were presented as the mean ± standard deviation (SD) of six independent experiments.

Data set [4] can be described thus: MTT cell viability assay, Hep-G2. It is filed as cell-based. The note with it: human, Hep-G2 hepatocellular carcinoma cells, Hep-G2, 100 μM. Here is the method:
as §1, §2

Data set [5] in a line: MTT cell viability assay, HCT-116. The format is cell-based, human. The conditions noted are these: human, HCT-116 colon cancer cells; for viability at 24 h, 100 µM: HCT-116, 100 μM. As to the method:
as §1
(§3) Cell viability was determined by a 3-(4,5-dimethylthiazol-2-yl)-2,5-diphenyltetrazolium bromide (MTT) colorimetric assay. Each cell strain (6000 cells/well) was plated in 96-well microtiter plates and allowed to attach for 24 h at 37 °C and 5% CO2. Compound I or 6-shogaol (in dimethyl sulfoxide, DMSO) was added to the cell culture medium to desired final concentrations of 10, 40, and 100 μM. Final DMSO concentrations for control and treatments were 0.1%. There were six replicates of each condition. After the cells were cultured for 24 h, the medium was removed, and the cells were treated with 5 mg/mL MTT in fresh media. After incubation for 4 h at 37 °C, the medium containing MTT was removed, 100 μL of DMSO was added to the wells, and the plates were shaken gently for 30 min at room temperature. Absorbance values were derived from the plate reading at 490 nm on microplate readers (BioTek, Agilent).

Data set [6] can be described thus: Metabolite profiling in rat plasma, urine and feces by UPLC–QTOF–MS/MS. The conditions noted are these: rats; for biological samples in which metabolite was detected, 6-Shogaol treated: 10 mg/kg oral 6-shogaol, feces/urine/plasma.
Protocol: A total of 12 adult male Sprague–Dawley rats (220–240 g) were purchased from the Chinese University of Hong Kong. The animals were kept in standard living conditions (room temperature 22 ± 1 °C, 12 h light/dark normal cycle, and constant humidity) at the animal laboratory of the School of Chinese Medicine, Hong Kong Baptist University with free access to food and water. All experimental protocols were approved by the Environmental Health and Safety Committee of Hong Kong Baptist University, Hong Kong (03/2017), and the procedures were in accordance with the guidelines of the Animal Care Ethics Committee of Hong Kong Baptist University and the Department of Health, Hong Kong Special Administrative Region. Before the experiment, the rats were kept for one week to acclimate to the new environment. The rats were randomly divided into two groups (n = 6) and fasted with water freely available. On the day of the experiment, by intragastric administration, one group received compound I and the other group received 6-shogaol. Both compounds were dissolved in 2% Tween 80 with an administration volume of less than 0.5 mL at a dose of 10 mg/kg. Then, rats were housed singly during the blood collection period (a total of 72 h). For each sample, 300–500 μL blood was collected from the eye canthus of each rat into tubes containing 1.5 mL EDTA. Samples were drawn at 0.0, 0.08, 0.25, 0.50, 0.75, 1.0, 2.0, 4.0, 6.0, 12, 24, 36, 48, 60, and 72 h. The blood samples were centrifuged at 4000 rpm for 15 min at 4 °C to obtain plasma. Urine and feces were collected every 1–2 h throughout the experiments. The blood, urine, and feces were collected before the intragastric administration as a blank sample. The rats were sacrificed by cervical spondylolisthesis after the experiment.
For metabolite identification and relative quantification, homogeneous biospecimen samples were combined during periods from 0 h to the time when plasmatic concentrations reached a maximum value (Tmax) after intragastric administration. 50 μL of each plasma or urine sample was added to 1.2 mL of MeOH to precipitate proteins. […]
In data set [7] the test system is HCT-116 colon cancer cells. The data set can be described thus: MTT cell viability assay, HCT-116. It is filed as cell-based, human. The note with it: HCT-116, 10 μM, 24 h. As to the method: as §1, §3

As usually defined, the viability is the share of living cells, or the viability signal relative to a control. A higher viability goes with less harm to the cells. What is called AUC(0-inf) is the area under the concentration-time curve extrapolated to infinity. Low readings indicate low exposure, high ones high exposure. One may read the AUC(0-t) as the area under the concentration-time curve up to a stated or last time point. High values mean high exposure, low ones low exposure. By Cmax is commonly meant the maximum level reached in the sampled fluid or tissue. One may read the Tmax as the time at which the peak concentration occurs. As a reminder, the MRT is a mean duration of stay, worked out from the concentration-time curve. Compound `CCCCC/C=C/C(=O)CCc1ccc(O)c(OC)c1` [6-shogaol, reference compound] showed a viability at 24 h, 100 µM in data set [1] of 7.84%. In addition, in data set [2], the “Stability (Mean±SD), Postpreparative” value is on record as 95.87±8.69%; the “Stability (Mean±SD), Short Term” value was found to be 95.88±8.18%; the “Stability (Mean±SD), Freeze and Thaw” value worked out at 96.06±9.07%; the “Stability (Mean±SD), Long Term” value came to 101.23±12.95%. In data set [3], the total exposure AUC(0-inf) stood at 121 ± 36.3 ng·h/mL, the AUC(0-t) worked out at 76.8 ± 26.9 ng·h/mL, the Cmax came out at 155 ± 39 ng/mL and the time of peak concentration (Tmax) was determined as 0.14 ± 0.09 h. For the same compound, in data set [3], the CL/F is 1470 mL/min/kg, the MRT was found to be 1.02 ± 0.82 h, the half-life was 0.64 ± 0.53 h and the Vd/F was found to be 71.9 ± 33 L/kg. In addition, the viability at 24 h, 100 µM in data set [4] was found to be 2.73%. In data set [5] (HCT-116, 10 μM), this compound registered a viability at 24 h, 10 µM of 58.6%. The compound also had a viability at 24 h, 100 µM in data set [5] of 4.17%.
Turning to `CCCCCC(CC(=O)CCc1ccc(O)c(OC)c1)SCC(NC(=O)CCC(N)C(=O)O)C(=O)NCC(=O)O` (centres unmarked) [M4, 5-glutathionyl-6-shogaol], the “metabolite concentration in urine and feces samples of 6-gingesulfonic acid group versus 6-shogaol group” value in data set [6] (10 mg/kg oral) is reported as “lower concentrations”.
As to `CCCCCC=CC(O)CCc1ccc(O)c(OC)c1` (centres unmarked) [M1, 1-(4′-hydroxy-3′-methoxyphenyl)-4-decen-3-ol], the “biological samples in which metabolite was detected, 6-Shogaol treated” value in data set [6] is on record as “FUP”.
Still for that read-out and setting: then `CCCCC/C=C/C(=O)CCc1ccc(OC2OC(C(=O)O)C(O)C(O)C2O)c(OC)c1` (stereo not drawn) [M3, s-6-shogaol-4′-O-β-glucuronide], with “FUP”.
Regarding `CCCCCC(CC(=O)CCc1ccc(O)c(OC)c1)S(=O)(=O)O` (centres unmarked) [6-gingesulfonic acid], in data set [1], the viability at 24 h, 100 µM worked out at 64.6%. For the same compound, in data set [2], the “Stability (Mean±SD), Postpreparative” value turned out to be 98.19±5.06%; the “Stability (Mean±SD), Short Term” value came out at 99.26±1.58%; the “Stability (Mean±SD), Freeze and Thaw” value is recorded as 92.6±4.31%; the “Stability (Mean±SD), Long Term” value turned out to be 92.26±4.28%. In data set [3], the AUC(0-inf) came to 9580 ± 2070 ng·h/mL, the AUC(0-t) was determined as 8710 ± 1930 ng·h/mL, the Cmax is 520 ± 138 ng/mL and the time to peak (Tmax) stood at 5.33 ± 1.63 h. In addition, in data set [3], the CL/F is 18 mL/min/kg, the MRT was determined as 30.4 ± 1.83 h, the half-life was 20.8 ± 5.23 h and the Vd/F was found to be 32.4 ± 9.94 L/kg. The same compound showed a viability at 24 h, 100 µM in data set [4] of 84.2%. Besides, in data set [7], the cell viability result is recorded as “no significant change”. In data set [5], this compound registered a viability at 24 h, 100 µM of 84.9%.
